The values below come from ChEMBL document CHEMBL1130828, “Synthesis and biological activities of phenyl piperazine-based peptidomimetic growth hormone secretagogues” (Bioorg Med Chem Lett, 1998).

The term EC50 denotes the concentration giving half of the maximal effect. Lower therefore signals greater potency.

For this assay, the species on record is Rattus norvegicus. The assay is described as follows: Concentration required for GH-releasing activity in the rat pituitary cell assay was determined in vitro. To be noted: Pituitary gland cell. It is filed as functional.

For `COC(=O)CS(=O)(=O)Nc1ccccc1N1CCN(C(=O)[C@@H](CCCc2ccccc2)NC(=O)C(C)(C)N)CC1`, the EC50 worked out at 4.5 nM. This lies in the single-digit nanomolar range.

Take `CC(C)S(=O)(=O)Nc1ccccc1N1CCN(C(=O)[C@@H](CCCc2ccccc2)NC(=O)C(C)(C)N)CC1`: a half-maximal effect (EC50) was put at 2.8 nM.

With `CC(C)c1ccccc1N1CCN(C(=O)[C@@H](Cc2c[nH]c3ccccc23)NC(=O)C(C)(C)N)CC1`, the response was half-maximal at 210 nM (EC50).

As to `CC(C)(N)C(=O)N[C@H](CCCc1ccccc1)C(=O)N1CCN(c2ccccc2NS(C)(=O)=O)CC1`, the EC50 was 6.3 nM. This EC50 lies about 33-fold lower than the previous one.

`CC(C)(N)C(=O)N[C@H](CCCc1ccccc1)C(=O)N1CCN(c2ccccc2NS(=O)(=O)C(F)(F)F)CC1`: the response was half-maximal at 200 nM (EC50).

For `Cc1ccccc1N1CCN(C(=O)[C@@H](Cc2c[nH]c3ccccc23)NC(=O)C(C)(C)N)CC1`, the midpoint of the response, the EC50, lay at 150 nM.

On to `Cc1ccccc1N1CCN(C(=O)[C@@H](CCCc2ccccc2)NC(=O)C(C)(C)N)CC1`, for which it took 100 nM to reach a half-maximal effect (EC50).

In turn, `COc1ccccc1N1CCN(C(=O)[C@@H](Cc2c[nH]c3ccccc23)NC(=O)C(C)(C)N)CC1` had an EC50 of 490 nM.

The compound `CC(C)(N)C(=O)N[C@H](CCCc1ccccc1)C(=O)N1CCN(c2ccccc2NS(=O)(=O)CC(=O)O)CC1` returned an EC50 of 2.3 nM. Against the preceding compound, the EC50 is about 210-fold lower.

Compound `CC(C)(N)C(=O)N[C@H](Cc1c[nH]c2ccccc12)C(=O)N1CCN(c2ccccc2Cl)CC1` came in with an EC50 of 760 nM.
